Assay results from ChEMBL document CHEMBL1157712, “Hit to lead account of the discovery of bisbenzamide and related ureidobenzamide inhibitors of Rho kinase” (J Med Chem, 2010).
≈ marks a conversion by molar mass, not a printed value. Values belong to the compound of their own block, whether it stands above or below them.

How the values were obtained:
[1] = target: T1, Rho-associated protein kinase 2 (Homo sapiens, UniProt O75116)
Description: (§2) Inhibition of human ROCK2 by homogenous luciferase assay

[2] = target: T1, Rho-associated protein kinase 2; test: Inhibition of human ROCK2 by IMAP assay
[3] = target: T1, Rho-associated protein kinase 2; remark: listed apart in the source
Description: as §2

[4] = target: T2, Protein kinase C epsilon type (Homo sapiens, UniProt Q02156); test: Inhibition of PKCepsilon
T2 sequence (Q02156 whole entry): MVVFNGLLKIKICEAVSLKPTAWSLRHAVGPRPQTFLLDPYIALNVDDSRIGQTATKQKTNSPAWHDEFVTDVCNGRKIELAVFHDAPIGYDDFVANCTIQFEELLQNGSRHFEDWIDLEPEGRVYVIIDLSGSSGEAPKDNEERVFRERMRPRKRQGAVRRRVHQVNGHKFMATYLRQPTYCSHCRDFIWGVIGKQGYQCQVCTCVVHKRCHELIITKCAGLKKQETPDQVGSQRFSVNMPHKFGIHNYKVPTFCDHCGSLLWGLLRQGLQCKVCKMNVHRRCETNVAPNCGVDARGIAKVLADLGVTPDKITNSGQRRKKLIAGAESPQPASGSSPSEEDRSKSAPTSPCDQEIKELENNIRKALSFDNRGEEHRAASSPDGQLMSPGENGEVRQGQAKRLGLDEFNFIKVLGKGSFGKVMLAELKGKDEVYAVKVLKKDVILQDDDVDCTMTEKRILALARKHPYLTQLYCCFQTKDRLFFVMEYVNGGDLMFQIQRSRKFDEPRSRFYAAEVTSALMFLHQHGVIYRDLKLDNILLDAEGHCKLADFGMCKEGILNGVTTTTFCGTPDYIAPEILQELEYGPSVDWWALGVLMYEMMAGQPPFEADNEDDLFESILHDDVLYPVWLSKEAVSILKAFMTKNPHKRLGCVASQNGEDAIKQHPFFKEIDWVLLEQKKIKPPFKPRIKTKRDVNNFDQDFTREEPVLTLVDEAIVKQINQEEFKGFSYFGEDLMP

[5] = target: Serine/threonine-protein kinase N2 (Homo sapiens, UniProt Q16513)
Serine/threonine-protein kinase N2, sequence (Q16513 whole entry): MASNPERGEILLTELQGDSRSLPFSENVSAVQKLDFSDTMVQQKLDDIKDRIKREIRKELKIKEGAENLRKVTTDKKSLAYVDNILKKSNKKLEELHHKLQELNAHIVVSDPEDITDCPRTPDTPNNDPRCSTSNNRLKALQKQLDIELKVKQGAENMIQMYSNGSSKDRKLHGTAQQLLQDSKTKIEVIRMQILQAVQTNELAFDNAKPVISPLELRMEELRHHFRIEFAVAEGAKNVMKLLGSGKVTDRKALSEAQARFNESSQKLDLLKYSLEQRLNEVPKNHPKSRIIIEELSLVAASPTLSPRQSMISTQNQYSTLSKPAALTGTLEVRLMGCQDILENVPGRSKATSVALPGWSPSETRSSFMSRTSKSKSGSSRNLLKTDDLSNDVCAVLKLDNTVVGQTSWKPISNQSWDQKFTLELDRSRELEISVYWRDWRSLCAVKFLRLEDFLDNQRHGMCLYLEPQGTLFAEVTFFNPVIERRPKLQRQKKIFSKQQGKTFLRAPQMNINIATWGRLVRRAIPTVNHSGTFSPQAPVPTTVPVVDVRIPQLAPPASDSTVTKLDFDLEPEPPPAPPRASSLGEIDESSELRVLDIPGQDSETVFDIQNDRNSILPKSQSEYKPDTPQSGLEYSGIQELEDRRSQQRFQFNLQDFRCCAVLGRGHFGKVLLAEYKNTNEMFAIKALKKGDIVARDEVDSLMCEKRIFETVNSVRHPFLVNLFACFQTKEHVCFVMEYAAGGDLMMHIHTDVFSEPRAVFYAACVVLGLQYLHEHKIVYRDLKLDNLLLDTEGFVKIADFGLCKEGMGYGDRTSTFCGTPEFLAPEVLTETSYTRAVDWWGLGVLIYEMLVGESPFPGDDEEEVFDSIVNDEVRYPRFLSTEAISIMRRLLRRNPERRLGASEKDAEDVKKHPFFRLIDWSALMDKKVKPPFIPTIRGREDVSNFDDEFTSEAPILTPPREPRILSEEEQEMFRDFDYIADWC

ROCK1 (Homo sapiens) = test: Inhibition of ROCK1
[6] = target: Serine/threonine-protein kinase MRCK beta (Homo sapiens) (UniProt Q9Y5S2); test: Inhibition of CDC42BPB
[7] = (§1) Permeability from apical to basolateral side in human Caco-2 cells; format: ADME, cell-based; conditions: Caco-2, read-out: permeability
[8] = Permeability from basolateral to apical side in human Caco-2 cells; format: ADME, cell-based; conditions: read-out: permeability
[9] = Metabolic stability in human liver microsomes assessed as half life; format: ADME, Microsome
Cytochrome P450 1A2 [10] = target: T3, Cytochrome P450 1A2 (Homo sapiens, UniProt P05177); test: Inhibition of human CYP1A2 by fluorescence assay; format: ADME
T3 sequence (P05177 whole entry): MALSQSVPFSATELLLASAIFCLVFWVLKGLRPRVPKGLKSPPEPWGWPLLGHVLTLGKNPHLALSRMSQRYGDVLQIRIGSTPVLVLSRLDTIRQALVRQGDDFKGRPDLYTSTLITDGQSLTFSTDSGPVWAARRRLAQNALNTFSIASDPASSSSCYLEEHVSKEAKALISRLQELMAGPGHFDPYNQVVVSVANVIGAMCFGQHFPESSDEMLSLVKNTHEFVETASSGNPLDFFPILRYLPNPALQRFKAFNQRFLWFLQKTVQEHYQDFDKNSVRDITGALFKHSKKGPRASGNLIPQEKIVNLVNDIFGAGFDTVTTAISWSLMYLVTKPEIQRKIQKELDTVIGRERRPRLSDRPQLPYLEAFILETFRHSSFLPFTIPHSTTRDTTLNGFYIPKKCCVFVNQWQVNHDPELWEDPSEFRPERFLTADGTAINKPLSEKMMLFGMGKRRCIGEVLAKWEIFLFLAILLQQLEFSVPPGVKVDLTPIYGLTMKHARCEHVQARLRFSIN

Cytochrome P450 2C9 [11] = target: T4, Cytochrome P450 2C9 (Homo sapiens, UniProt P11712); test: Inhibition of human CYP2C9 by fluorescence assay; format: ADME
T4 sequence (P11712 whole entry): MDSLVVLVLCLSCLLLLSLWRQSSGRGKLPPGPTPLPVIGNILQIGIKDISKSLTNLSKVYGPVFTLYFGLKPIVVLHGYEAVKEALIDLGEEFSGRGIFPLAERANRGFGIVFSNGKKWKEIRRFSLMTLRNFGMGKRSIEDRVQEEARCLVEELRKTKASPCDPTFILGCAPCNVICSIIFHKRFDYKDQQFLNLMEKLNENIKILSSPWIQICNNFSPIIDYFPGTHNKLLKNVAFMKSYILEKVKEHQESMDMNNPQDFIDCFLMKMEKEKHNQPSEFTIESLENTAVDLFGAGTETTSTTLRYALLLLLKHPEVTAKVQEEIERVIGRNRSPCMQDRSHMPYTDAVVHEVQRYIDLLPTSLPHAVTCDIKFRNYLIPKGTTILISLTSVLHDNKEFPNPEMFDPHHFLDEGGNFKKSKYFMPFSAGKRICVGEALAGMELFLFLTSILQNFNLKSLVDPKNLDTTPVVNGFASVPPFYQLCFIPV

Cytochrome P450 2C19 = Cytochrome P450 2C19 (Homo sapiens, UniProt P33261); test: Inhibition of human CYP2C19 by fluorescence assay; format: ADME
Cytochrome P450 2C19, sequence (P33261 whole entry): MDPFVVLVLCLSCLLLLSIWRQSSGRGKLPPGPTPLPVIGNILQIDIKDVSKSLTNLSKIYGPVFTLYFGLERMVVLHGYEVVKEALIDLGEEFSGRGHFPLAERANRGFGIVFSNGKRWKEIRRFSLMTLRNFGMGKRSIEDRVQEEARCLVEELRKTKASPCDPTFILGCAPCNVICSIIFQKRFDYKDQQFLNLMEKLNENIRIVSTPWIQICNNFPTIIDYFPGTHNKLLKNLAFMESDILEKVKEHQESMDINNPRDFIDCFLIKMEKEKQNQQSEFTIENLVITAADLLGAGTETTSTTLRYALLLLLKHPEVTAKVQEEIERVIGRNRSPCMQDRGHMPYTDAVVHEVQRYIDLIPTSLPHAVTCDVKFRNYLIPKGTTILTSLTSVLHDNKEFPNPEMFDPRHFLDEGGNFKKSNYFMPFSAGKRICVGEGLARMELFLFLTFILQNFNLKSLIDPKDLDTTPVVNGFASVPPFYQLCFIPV

Cytochrome P450 2D6 [12] = target: T5, Cytochrome P450 2D6 (Homo sapiens, UniProt P10635); test: Inhibition of human CYP2D6 by fluorescence assay; format: ADME
T5 sequence (P10635 whole entry): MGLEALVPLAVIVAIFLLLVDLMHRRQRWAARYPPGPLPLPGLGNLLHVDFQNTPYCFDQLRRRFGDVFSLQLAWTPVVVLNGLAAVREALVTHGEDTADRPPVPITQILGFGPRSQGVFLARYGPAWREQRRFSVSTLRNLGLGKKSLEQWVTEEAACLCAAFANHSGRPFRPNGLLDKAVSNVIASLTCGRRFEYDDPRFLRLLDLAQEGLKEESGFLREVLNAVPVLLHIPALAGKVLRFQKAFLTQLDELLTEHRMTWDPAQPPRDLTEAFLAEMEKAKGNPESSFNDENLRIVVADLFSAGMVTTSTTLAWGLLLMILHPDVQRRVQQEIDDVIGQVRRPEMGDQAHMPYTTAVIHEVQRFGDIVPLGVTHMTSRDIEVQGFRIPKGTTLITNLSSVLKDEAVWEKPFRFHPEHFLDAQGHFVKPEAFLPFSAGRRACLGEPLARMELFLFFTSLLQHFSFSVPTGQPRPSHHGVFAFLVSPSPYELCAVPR

[13] = Membrane permeability by PAMPA assay; format: ADME; conditions: read-out: permeability
Rattus norvegicus = species: Rattus norvegicus; test: Induction of relaxation activity of phenylephrine-induced Sprague-Dawley rat aortic ring contraction; format: functional; conditions: Aorta
[14] = Solubility at pH 7.4; format: physicochemical; conditions: buffer
Cytochrome P450 3A4 [15] = target: T6, Cytochrome P450 3A4 (Homo sapiens, UniProt P08684); test: Inhibition of human CYP3A4 using BFC substrate by fluorescence assay; format: ADME
T6 sequence (P08684 whole entry): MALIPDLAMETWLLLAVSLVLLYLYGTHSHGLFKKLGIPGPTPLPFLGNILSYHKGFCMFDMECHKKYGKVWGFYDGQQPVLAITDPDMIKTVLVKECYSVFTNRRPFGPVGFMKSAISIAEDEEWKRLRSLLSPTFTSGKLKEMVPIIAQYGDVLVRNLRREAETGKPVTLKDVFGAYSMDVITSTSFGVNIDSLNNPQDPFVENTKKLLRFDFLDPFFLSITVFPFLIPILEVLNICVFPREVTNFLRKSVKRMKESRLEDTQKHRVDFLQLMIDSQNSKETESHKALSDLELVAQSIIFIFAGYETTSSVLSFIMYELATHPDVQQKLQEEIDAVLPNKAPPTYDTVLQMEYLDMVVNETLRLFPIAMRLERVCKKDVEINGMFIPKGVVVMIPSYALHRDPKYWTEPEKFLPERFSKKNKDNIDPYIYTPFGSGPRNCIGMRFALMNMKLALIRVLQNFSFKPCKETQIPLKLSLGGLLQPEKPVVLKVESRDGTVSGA

Cytochrome P450 3A4 [16] = target: T6, Cytochrome P450 3A4; test: Inhibition of human CYP3A4 using BQ substrate by fluorescence assay; format: ADME
Caco-2 = test: as §1; format: ADME, cell-based; conditions: caco-2, BLD = below limit of detection
Cytochrome P450 1A2 [17] = target: T3, Cytochrome P450 1A2; test: Inhibition of human CYP1A2 by LCMS/MS assay; format: ADME
Cytochrome P450 2C9 [18] = target: T4, Cytochrome P450 2C9; test: Inhibition of human CYP2C9 by LCMS/MS assay; format: ADME
Cytochrome P450 2D6 [19] = target: T5, Cytochrome P450 2D6; test: Inhibition of human CYP2D6 by LCMS/MS assay; format: ADME
Cytochrome P450 3A4 [20] = target: T6, Cytochrome P450 3A4; test: Inhibition of human CYP3A4 by LCMS/MS assay; format: ADME

T1 sequence (O75116 whole entry): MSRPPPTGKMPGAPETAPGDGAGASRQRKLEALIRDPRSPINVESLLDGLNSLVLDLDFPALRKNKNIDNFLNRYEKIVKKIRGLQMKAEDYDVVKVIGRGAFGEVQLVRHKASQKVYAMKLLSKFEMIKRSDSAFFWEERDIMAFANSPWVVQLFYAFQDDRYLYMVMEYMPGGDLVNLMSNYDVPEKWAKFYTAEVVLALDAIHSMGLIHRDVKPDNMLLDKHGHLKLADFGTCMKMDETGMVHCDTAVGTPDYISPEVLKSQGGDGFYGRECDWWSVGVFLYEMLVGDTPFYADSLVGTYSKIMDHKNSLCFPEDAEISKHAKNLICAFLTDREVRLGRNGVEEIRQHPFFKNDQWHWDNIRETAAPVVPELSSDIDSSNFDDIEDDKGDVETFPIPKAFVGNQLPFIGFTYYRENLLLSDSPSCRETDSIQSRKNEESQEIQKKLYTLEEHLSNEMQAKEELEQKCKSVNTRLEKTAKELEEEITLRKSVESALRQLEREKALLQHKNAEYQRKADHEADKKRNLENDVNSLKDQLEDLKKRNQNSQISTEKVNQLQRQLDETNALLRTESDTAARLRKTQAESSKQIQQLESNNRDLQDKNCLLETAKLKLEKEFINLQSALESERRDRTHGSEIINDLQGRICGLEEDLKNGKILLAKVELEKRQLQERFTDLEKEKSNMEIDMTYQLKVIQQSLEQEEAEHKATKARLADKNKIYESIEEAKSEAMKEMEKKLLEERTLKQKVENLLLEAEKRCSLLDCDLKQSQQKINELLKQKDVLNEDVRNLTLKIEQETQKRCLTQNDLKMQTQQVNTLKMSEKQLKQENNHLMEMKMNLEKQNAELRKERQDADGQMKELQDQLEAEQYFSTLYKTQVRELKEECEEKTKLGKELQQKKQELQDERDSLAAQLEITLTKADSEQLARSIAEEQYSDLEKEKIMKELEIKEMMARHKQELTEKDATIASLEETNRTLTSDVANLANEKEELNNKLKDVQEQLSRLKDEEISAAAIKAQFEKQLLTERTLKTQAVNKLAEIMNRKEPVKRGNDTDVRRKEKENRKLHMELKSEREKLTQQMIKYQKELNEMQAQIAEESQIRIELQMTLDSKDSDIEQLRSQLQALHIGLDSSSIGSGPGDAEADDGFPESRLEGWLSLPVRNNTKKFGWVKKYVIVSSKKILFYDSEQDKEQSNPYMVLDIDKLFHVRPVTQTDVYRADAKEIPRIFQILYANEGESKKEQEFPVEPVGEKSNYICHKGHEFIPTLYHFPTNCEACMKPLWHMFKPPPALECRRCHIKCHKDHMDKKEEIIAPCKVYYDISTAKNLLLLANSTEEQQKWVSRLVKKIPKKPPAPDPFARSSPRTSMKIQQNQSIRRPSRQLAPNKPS

IC50 [1]: 685 µM
SMILES: COc1ccc(C(=O)NCc2cccc(C(=O)Nc3ccc4cnccc4c3)c2)cc1OC

IC50 [2]: > 6.5 µM
SMILES: CN(C)Cc1ccc(NC(=O)c2cccc(CNC(=O)c3ccc(C#N)cc3)c2)cc1

IC50 [2]: > 6.4 µM | IC50 [3]: > 6 µM
SMILES: CN(C)Cc1ccc(NC(=O)c2cccc(CNC(=O)c3ccc(O)c(O)c3)c2)cc1

IC50 [3]: > 6000 µM
SMILES: COc1ccc(S(=O)(=O)NCc2cccc(C(=O)NCCC3CCCNC3)c2)cc1OC (centres undefined)

IC50 [4]: > 5 µM | IC50 [5]: 1.7 µM | IC50 [3]: 0.018 µM | IC50 (ROCK1 (Homo sapiens)): 0.031 µM | IC50 [6]: > 5 µM
SMILES: N#Cc1ccc(NC(=O)NCc2cccc(C(=O)NCCC3CCCNC3)c2)cc1 (centres undefined)

IC50 [1]: 37 µM
SMILES: COc1ccc(NC(=O)Cc2cccc(NC(=O)CCC3CCCNC3)c2)cc1OC (centres undefined)

IC50 [1]: 65 µM
SMILES: N#Cc1ccc(NC(=O)NCc2cccc(C(=O)NCCC3CCNCC3)c2)cc1

IC50 [3]: > 6000 µM
SMILES: COc1ccc(CNC(=O)c2cccc(C(=O)NCCC3CCCNC3)c2)cc1OC (centres undefined)

IC50 [2]: 0.35 µM | IC50 [1]: 160 µM
SMILES: COc1ccc(C(=O)NCc2cccc(C(=O)Nc3ccc(CN(C)C)cc3)c2)cc1C(F)(F)F

IC50 [2]: 1.3 µM | IC50 [1]: 670 µM
SMILES: CN(C)Cc1ccc(NC(=O)c2cccc(CNC(=O)c3ccc(OC(F)(F)F)c(Cl)c3)c2)cc1

IC50 [3]: > 7000 µM
SMILES: COc1ccc(NC(=O)Nc2cccc(C(=O)NCCC3CCCNC3)c2)cc1OC (centres undefined)

Papp A→B [7]: 0.3 ×10⁻⁶ cm/s | Papp B→A [8]: 27.1 ×10⁻⁶ cm/s | half-life [9]: 0.917 h | IC50 (Cytochrome P450 1A2 [10]): > 30 µM | IC50 (Cytochrome P450 2C9 [11]): > 30 µM | IC50 (Cytochrome P450 2C19): > 30 µM | IC50 (Cytochrome P450 2D6 [12]): > 30 µM | IC50 [4]: > 5 µM | Papp [13]: 16 ×10⁻⁶ cm/s | IC50 (Rattus norvegicus): 1.2 µM | solubility [14]: > 85 µg/mL | IC50 (Cytochrome P450 3A4 [15]): 1.7 µM | IC50 (Cytochrome P450 3A4 [16]): > 30 µM | IC50 [5]: > 5 µM | IC50 [3]: 0.046 µM | IC50 [6]: > 5 µM
SMILES: COc1ccc(C(=O)NCc2cccc(C(=O)Nc3ccc4c(c3)CN(C)CC4)c2)cc1OC

Papp A→B [7]: 0.1 ×10⁻⁶ cm/s | Papp B→A [8]: 0.6 ×10⁻⁶ cm/s | half-life [9]: 1.45 h | IC50 (Cytochrome P450 1A2 [10]): > 30 µM | IC50 (Cytochrome P450 2C9 [11]): > 30 µM | IC50 (Cytochrome P450 2C19): > 30 µM | IC50 (Cytochrome P450 2D6 [12]): > 30 µM | IC50 [4]: > 5 µM | Papp [13]: 0.6 ×10⁻⁶ cm/s | solubility [14]: 67 µg/mL (≈ 157 µM) | IC50 (Cytochrome P450 3A4 [15]): > 30 µM | IC50 (Cytochrome P450 3A4 [16]): > 30 µM | IC50 [5]: > 5 µM | IC50 [6]: > 5 µM
SMILES: COc1ccc(C(=O)NCc2cccc(C(=O)NCCC3CCNCC3)c2)cc1OC

IC50 [3]: > 7000 µM
SMILES: O=C(NCCc1ccncc1)c1cccc(CNC(=O)c2ccc3c(c2)OCO3)c1

IC50 [1]: 3200 µM
SMILES: COc1ccc(CC(=O)Nc2cccc(C(=O)NCCC3CCCNC3)c2)cc1OC (centres undefined)

permeability (Caco-2): BLD | Papp B→A [8]: 8.8 ×10⁻⁶ cm/s | half-life [9]: 3.15 h | IC50 (Cytochrome P450 1A2 [10]): > 30 µM | IC50 (Cytochrome P450 2C9 [11]): 22 µM | IC50 (Cytochrome P450 2C19): > 30 µM | IC50 (Cytochrome P450 2D6 [12]): > 30 µM | IC50 [4]: > 5 µM | IC50 (Rattus norvegicus): 8.5 µM | IC50 [2]: 0.048 µM | solubility [14]: > 100 µg/mL | IC50 (Cytochrome P450 3A4 [15]): 5.9 µM | IC50 (Cytochrome P450 3A4 [16]): > 30 µM | IC50 [5]: 1.6 µM | IC50 [3]: 0.014 µM | IC50 [6]: > 5 µM
SMILES: N#Cc1ccc(NC(=O)NCc2cccc(C(=O)Nc3ccc4c(c3)CNCC4)c2)cc1

IC50 [1]: 1.2 µM
SMILES: COc1ccc(C(=O)NCc2cccc(C(=O)NCC3CCCO3)c2)cc1OC (racemic)

Papp A→B [7]: 7.9 ×10⁻⁶ cm/s | Papp B→A [8]: 30.8 ×10⁻⁶ cm/s | Papp [13]: 21 ×10⁻⁶ cm/s | IC50 [2]: 0.66 µM | solubility [14]: > 88 µg/mL | IC50 (Cytochrome P450 1A2 [17]): > 30 µM | IC50 (Cytochrome P450 2C9 [18]): 12.5 µM | IC50 (Cytochrome P450 2D6 [19]): > 30 µM | IC50 (Cytochrome P450 3A4 [20]): 13.5 µM
SMILES: COc1ccc(C(=O)NCc2cccc(C(=O)Nc3ccc(CN(C)C)cc3)c2)cc1C

IC50 [3]: > 6000 µM
SMILES: COc1ccc(C(=O)Nc2cccc(C(=O)NCCC3CCCNC3)c2)cc1OC (centres undefined)

Papp A→B [7]: 0.1 ×10⁻⁶ cm/s | Papp B→A [8]: 0.8 ×10⁻⁶ cm/s | half-life [9]: 2.32 h | IC50 (Cytochrome P450 1A2 [10]): > 30 µM | IC50 (Cytochrome P450 2C9 [11]): > 30 µM | IC50 (Cytochrome P450 2C19): > 30 µM | IC50 (Cytochrome P450 2D6 [12]): > 30 µM | IC50 [4]: > 5 µM | IC50 [2]: 0.14 µM | solubility [14]: 16 µg/mL (≈ 37.6 µM) | IC50 (Cytochrome P450 3A4 [15]): > 30 µM | IC50 (Cytochrome P450 3A4 [16]): > 30 µM | IC50 [5]: 4.4 µM | IC50 [3]: 0.053 µM | IC50 [6]: > 5 µM
SMILES: COc1ccc(C(=O)NCc2cccc(C(=O)NCCC3CCCNC3)c2)cc1OC (centres undefined)

IC50 [2]: 0.014 µM | IC50 [1]: 8 µM
SMILES: CN(C)Cc1ccc(NC(=O)c2cccc(CNC(=O)Nc3ccc(C(N)=O)cc3)c2)cc1
